Reference: the supplement of paper PMC10627819

Legend:
B. subtilis 168 [1] = assay: fitness (endpoint OD595 vs no drug) (fraction); higher = more growth
Summary of the method: (§1)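 In 384-well plates at 37 °C, cultures began at OD595 0.01 in 30 µl, with 55 µl used for S. pneumoniae. OD595 readings every 30 min for 14 h were corrected by the first reading. Fitness divides the stationary-phase transition optical density by the robust mean of no-drug control wells. The result is capped at 1.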

S. aureus DSM 20231 [2] = assay: as above
Summary of the method: as §1

S. aureus Newman [3] = assay: as above
Summary of the method: as §1

S. pneumoniae D39V [4] = assay: as above
Summary of the method: as §1

B. subtilis 168 [5] = assay: Bliss interaction score (quartile over a dose matrix) (fitness difference); higher = more antagonism (negative = synergy)
Summary of the method: (§2)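 OD595 was read at entry into stationary phase and expressed relative to the robust mean of the no-drug wells on the same plate, capped at 1. The resulting ratio is the fitness value. The Bliss score, observed fitness minus product-based expected fitness with single-drug fitness inferred from combinations, is summarised by quartiles over technical, biological and donor/recipient replicates.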

S. aureus DSM 20231 [6] = assay: as above
Summary of the method: as §2

S. aureus Newman [7] = assay: as above
Summary of the method: as §2

S. pneumoniae D39V [8] = assay: as above
Summary of the method: as §2
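For Bliss interaction score (quartile over a dose matrix) in this document: first quartile when negative (synergy) and third quartile when positive (antagonism).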

COc1cccc2c1C(=O)c1c(O)c3c(c(O)c1C2=O)C[C@@](O)(C(=O)CO)C[C@@H]3O[C@H]1C[C@H](N)[C@H](O)[C@H](C)O1 [Doxorubicin] + Cc1cc(NS(=O)(=O)c2ccc(N)cc2)no1 [Sulfamethoxazol]
fitness, one replicate
Conditions	first compound 0.625 µg/mL	first compound 1.25 µg/mL	first compound 2.5 µg/mL
B. subtilis 168 [1], partner 0.5 µg/mL	0.938	0.883	0.969
S. aureus Newman [3], partner 8 µg/mL	0.887	0.877	0.875

fitness
Conditions	first compound 0.25 µg/mL	first compound 0.5 µg/mL	first compound 0.625 µg/mL	first compound 1 µg/mL	first compound 1.25 µg/mL	first compound 2.5 µg/mL
B. subtilis 168 [1], partner 1 µg/mL	–	–	0.929	–	0.885	0.723
B. subtilis 168 [1], partner 2 µg/mL	–	–	0.878	–	0.865	0.665
B. subtilis 168 [1], partner 4 µg/mL	–	–	≥ 1	–	0.893	0.695
S. aureus DSM 20231 [2], partner 1 µg/mL	–	–	0.831	–	0.791	0.737
S. aureus DSM 20231 [2], partner 2 µg/mL	–	–	0.83	–	0.911	0.869
S. aureus DSM 20231 [2], partner 4 µg/mL	–	–	0.812	–	0.874	0.845
S. aureus Newman [3], partner 1 µg/mL	–	–	0.852	–	0.816	0.758
S. aureus Newman [3], partner 2 µg/mL	–	–	0.856	–	0.802	0.765
S. aureus Newman [3], partner 4 µg/mL	–	–	0.854	–	0.835	0.787
S. pneumoniae D39V [4], partner 1 µg/mL	0.943	0.93	–	0.904	–	–
S. pneumoniae D39V [4], partner 2 µg/mL	0.949	0.97	–	0.936	–	–
S. pneumoniae D39V [4], partner 4 µg/mL	0.965	0.954	–	0.92	–	–

Conditions	Bliss interaction score
B. subtilis 168 [5]	0.0735
S. aureus DSM 20231 [6]	-0.0832
S. aureus Newman [7]	-0.0666
S. pneumoniae D39V [8]	0.0685

COc1cccc2c1C(=O)c1c(O)c3c(c(O)c1C2=O)C[C@@](O)(C(=O)CO)C[C@@H]3O[C@H]1C[C@H](N)[C@H](O)[C@H](C)O1 [Doxorubicin] + C[n+]1ccc(-c2cc[n+](C)cc2)cc1 [Paraquat]
fitness
Conditions	first compound 0.25 µg/mL	first compound 0.5 µg/mL	first compound 0.625 µg/mL	first compound 1 µg/mL	first compound 1.25 µg/mL	first compound 2.5 µg/mL
B. subtilis 168 [1], partner 1.25 µg/mL	–	–	≥ 1	–	0.892	0.686
B. subtilis 168 [1], partner 2.5 µg/mL	–	–	0.924	–	0.861	0.656
B. subtilis 168 [1], partner 5 µg/mL	–	–	0.862	–	0.876	0.595
S. aureus DSM 20231 [2], partner 1.25 µg/mL	–	–	0.858	–	0.882	0.782
S. aureus DSM 20231 [2], partner 2.5 µg/mL	–	–	0.828	–	0.835	0.761
S. aureus DSM 20231 [2], partner 5 µg/mL	–	–	0.823	–	0.8	0.744
S. aureus Newman [3], partner 1.25 µg/mL	–	–	0.712	–	0.742	0.732
S. aureus Newman [3], partner 2.5 µg/mL	–	–	0.715	–	0.792	0.759
S. aureus Newman [3], partner 5 µg/mL	–	–	0.744	–	0.743	0.761
S. pneumoniae D39V [4], partner 1.5 µg/mL	0.98	0.992	–	0.9	–	–
S. pneumoniae D39V [4], partner 3 µg/mL	0.936	0.979	–	0.886	–	–
S. pneumoniae D39V [4], partner 6 µg/mL	0.916	0.946	–	0.872	–	–

Conditions	Bliss interaction score
B. subtilis 168 [5]	0.105
S. aureus DSM 20231 [6]	-0.0686
S. aureus Newman [7]	-0.052
S. pneumoniae D39V [8]	0.0503

Cc1ncc([N+](=O)[O-])n1CCO [Metronidazole] + CN1C2=CC=CC=C2N=C3C1=CC=CC3=O [Pyocyanin]
Conditions	fitness
B. subtilis 168 [1], first compound 0.625 µg/mL, partner 1.25 µg/mL	0.886
B. subtilis 168 [1], first compound 0.625 µg/mL, partner 2.5 µg/mL	0.867
B. subtilis 168 [1], first compound 0.625 µg/mL, partner 5 µg/mL	0.75
B. subtilis 168 [1], first compound 1.25 µg/mL, partner 1.25 µg/mL	0.884
B. subtilis 168 [1], first compound 1.25 µg/mL, partner 2.5 µg/mL	0.899
B. subtilis 168 [1], first compound 1.25 µg/mL, partner 5 µg/mL	0.743
B. subtilis 168 [1], first compound 2.5 µg/mL, partner 1.25 µg/mL	0.884
B. subtilis 168 [1], first compound 2.5 µg/mL, partner 2.5 µg/mL	0.896
B. subtilis 168 [1], first compound 2.5 µg/mL, partner 5 µg/mL	0.719
S. aureus DSM 20231 [2], first compound 0.625 µg/mL, partner 1.25 µg/mL	0.948
S. aureus DSM 20231 [2], first compound 0.625 µg/mL, partner 2.5 µg/mL	0.916
S. aureus DSM 20231 [2], first compound 0.625 µg/mL, partner 5 µg/mL	0.621
S. aureus DSM 20231 [2], first compound 1.25 µg/mL, partner 1.25 µg/mL	0.996
S. aureus DSM 20231 [2], first compound 1.25 µg/mL, partner 2.5 µg/mL	0.97
S. aureus DSM 20231 [2], first compound 1.25 µg/mL, partner 5 µg/mL	0.645
S. aureus DSM 20231 [2], first compound 2.5 µg/mL, partner 1.25 µg/mL	≥ 1
S. aureus DSM 20231 [2], first compound 2.5 µg/mL, partner 2.5 µg/mL	0.961
S. aureus DSM 20231 [2], first compound 2.5 µg/mL, partner 5 µg/mL	0.686
S. aureus Newman [3], first compound 0.625 µg/mL, partner 1.25 µg/mL	0.881
S. aureus Newman [3], first compound 0.625 µg/mL, partner 2.5 µg/mL	0.831
S. aureus Newman [3], first compound 1.25 µg/mL, partner 1.25 µg/mL	0.905
S. aureus Newman [3], first compound 1.25 µg/mL, partner 2.5 µg/mL	0.834
S. aureus Newman [3], first compound 2.5 µg/mL, partner 2.5 µg/mL	0.802
S. aureus Newman [3], first compound 2.5 µg/mL, partner 5 µg/mL	0.258
S. pneumoniae D39V [4], first compound 1.073 µg/mL, partner 0.325 µg/mL	≥ 1
S. pneumoniae D39V [4], first compound 1.073 µg/mL, partner 0.65 µg/mL	≥ 1
S. pneumoniae D39V [4], first compound 1.073 µg/mL, partner 1.3 µg/mL	0.795
S. pneumoniae D39V [4], first compound 2.145 µg/mL, partner 0.325 µg/mL	0.958
S. pneumoniae D39V [4], first compound 2.145 µg/mL, partner 0.65 µg/mL	0.98
S. pneumoniae D39V [4], first compound 2.145 µg/mL, partner 1.3 µg/mL	0.731
S. pneumoniae D39V [4], first compound 4.29 µg/mL, partner 0.325 µg/mL	0.98
S. pneumoniae D39V [4], first compound 4.29 µg/mL, partner 0.65 µg/mL	0.95
S. pneumoniae D39V [4], first compound 4.29 µg/mL, partner 1.3 µg/mL	0.815

fitness, one replicate
Conditions	first compound 0.781 µg/mL	first compound 1.25 µg/mL	first compound 1.562 µg/mL	first compound 2.5 µg/mL	first compound 3.124 µg/mL	first compound 5 µg/mL
S. aureus Newman [3], partner 1.25 µg/mL	0.808	–	0.785	–	0.771	–
S. aureus Newman [3], partner 2.5 µg/mL	0.795	–	0.768	–	0.78	–
S. aureus Newman [3], partner 5 µg/mL	0.376	–	0.425	–	0.418	–
S. pneumoniae D39V [4], partner 0.325 µg/mL	–	≥ 1	–	≥ 1	–	≥ 1
S. pneumoniae D39V [4], partner 0.65 µg/mL	–	≥ 1	–	≥ 1	–	≥ 1

Conditions	Bliss interaction score
B. subtilis 168 [5]	-0.0539
S. aureus DSM 20231 [6]	0.0663
S. aureus Newman [7]	0.0796
S. pneumoniae D39V [8]	0.0391

C[C@@H]1O[C@@H]1P(=O)(O)O [Fosfomycin] + CN1C2=CC=CC=C2N=C3C1=CC=CC3=O [Pyocyanin]
fitness
Conditions	partner 0.325 µg/mL	partner 0.65 µg/mL	partner 1.25 µg/mL	partner 1.3 µg/mL	partner 2.5 µg/mL	partner 5 µg/mL
B. subtilis 168 [1], first compound 1.562 µg/mL	–	–	0.671	–	0.632	0.536
B. subtilis 168 [1], first compound 3.124 µg/mL	–	–	0.59	–	0.588	0.471
B. subtilis 168 [1], first compound 6.248 µg/mL	–	–	0.465	–	0.412	0.376
S. aureus DSM 20231 [2], first compound 0.781 µg/mL	–	–	0.673	–	0.707	0.541
S. aureus DSM 20231 [2], first compound 1.562 µg/mL	–	–	0.653	–	0.629	0.472
S. aureus DSM 20231 [2], first compound 3.124 µg/mL	–	–	0.508	–	0.509	0.39
S. aureus Newman [3], first compound 0.781 µg/mL	–	–	0.547	–	0.548	0.424
S. aureus Newman [3], first compound 1.562 µg/mL	–	–	0.439	–	0.465	0.38
S. aureus Newman [3], first compound 3.124 µg/mL	–	–	0.0851	–	0.142	0.24
S. pneumoniae D39V [4], first compound 1.25 µg/mL	0.992	≥ 1	–	0.774	–	–
S. pneumoniae D39V [4], first compound 2.5 µg/mL	0.971	0.923	–	0.791	–	–
S. pneumoniae D39V [4], first compound 5 µg/mL	0.837	0.899	–	0.745	–	–

Conditions	Bliss interaction score
B. subtilis 168 [5]	0.072
S. aureus DSM 20231 [6]	0.0453
S. aureus Newman [7]	0.105
S. pneumoniae D39V [8]	0.0461
